Measured values published in US10519154B2, “7-substituted 1-pyridyl-naphthyridine-3-carboxylic acid amides and use thereof” (Bayer Pharma Aktiengesellschaft, priority 2016, dated 2019).

Experiments:
human M2 receptor [1] = target: T1, human M2 receptor (Homo sapiens, UniProt P08172); experiment: Functional M2-GIRK1/4 activation test: positive cooperativity (alpha factor); details: shift of acetylcholine dose-response curve (Allosteric EC50 shift); CHO-DUKX-M2-GIRK cells
T1 sequence (P08172 1-466): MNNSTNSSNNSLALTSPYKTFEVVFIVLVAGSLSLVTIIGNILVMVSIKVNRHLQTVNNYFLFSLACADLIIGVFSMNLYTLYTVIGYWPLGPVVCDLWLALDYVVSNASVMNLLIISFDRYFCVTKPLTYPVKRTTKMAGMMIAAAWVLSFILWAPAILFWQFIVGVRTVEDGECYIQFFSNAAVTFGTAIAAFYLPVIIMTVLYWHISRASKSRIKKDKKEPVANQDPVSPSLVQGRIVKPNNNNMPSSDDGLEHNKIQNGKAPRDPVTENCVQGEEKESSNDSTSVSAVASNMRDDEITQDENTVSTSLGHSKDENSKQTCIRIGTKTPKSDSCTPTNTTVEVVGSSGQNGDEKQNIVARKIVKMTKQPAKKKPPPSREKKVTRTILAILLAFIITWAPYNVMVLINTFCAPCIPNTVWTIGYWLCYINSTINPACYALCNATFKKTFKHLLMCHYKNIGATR
Description: The binding of orthosteric agonists (endogenous ligand: acetylcholine) to the M2 receptor leads to receptor activation or a change in conformation of the receptor in the manner of a shift in equilibrium in favor of the active receptor conformation.
The agonist-induced change in conformation of the M2 receptor results in a Gαi protein activation. […] Under physiological conditions, the result is then a selective efflux of potassium from the cell along the electrochemical gradient. […] The extent of hyperpolarization can therefore be regarded as a measure of the activation of the M2 receptor.
The test cell used is a recombinant CHO-DUKX cell line which has been stably transfected with cDNA coding for the human M2 receptor and with cDNA coding for both GIRK1/4 subunits (CHO-DUKX-M2-GIRK). The transmembrane potential, or the relative changes in the transmembrane potential as a function of substance addition or M2 activation, is determined by means of a voltage-sensitive dye (FLIPR Membrane Potential Assay Kit Blue, Molecular Devices #R8034) and the measurement of cell fluorescence using a proprietary fluorescence imaging instrument.
In accordance with the desired test concentrations, the substances were pre-diluted in loading buffer (see above).
The sowing medium consisted of MEM alpha medium (supplemented with 5% FCS, 2% Glutamax, no genticin).
For the particular measurement, the medium was removed and the cells were laden with the voltage-sensitive dye for at least 6 min at room temperature (30 μl of loading buffer per 384-well). This was followed, in a first measurement, by the determination of the resting transmembrane potential for a period of 5 sec in 1 sec increments. Thereafter, 10 μl in each case of the test substances diluted in loading buffer are added, followed by a second measurement to determine the transmembrane potential for a period of 50 sec in 1 sec increments.
Finally, the cells are admixed with 10 μl of agonist solution (acetylcholine dissolved in loading buffer). In contrast to the EC50 determination of the test substances (see B-1.1), however, this is not done using one acetylcholine concentration; instead, every concentration of the test substance is combined with an acetylcholine 8-point dose-response curve. […] The M2-mediated GIRK1/4 activation or hyperpolarization is then monitored in a third measurement over a period of 60 sec in 1 sec increments. The shift in the acetylcholine dose-response curve in the presence of increasing concentrations of the test substance is analyzed and quantified by means of GraphPad PRISM (Allosteric EC50 shift). […] Positive cooperativity is the hallmark of a positive allosteric modulator. […] The greater the magnitude of the cc value, the greater the extent of cooperativity between orthosteric and allosteric.

human M2 receptor [2] = target: T1, human M2 receptor; experiment: Functional M2-GIRK1/4 activation test: allosteric potency (EC50) and efficiency; details: for EC50: Receptor activity EC50, CHO-DUKX-M2-GIRK cells, acetylcholine at EC20, in some cases mean of two or more determinations; for Emax: read-out: Efficiency, boosting of the acetylcholine effect at EC20 acetylcholine concentration; for Emax / Efficiency: CHO-DUKX-M2-GIRK cells; for Efficiency: boosting of the acetylcholine effect at EC20 acetylcholine concentration

Cooperativity (alpha factor) (human M2 receptor [1]) | EC50 (human M2 receptor [2]) | Emax (human M2 receptor [2]) | Efficiency (human M2 receptor [2]) | Compound
14 | 64 nM | 99% | – | CC[C@H](NC(=O)c1cn(-c2ncc(F)cc2F)c2nc(N3CC(C)CC3=O)ccc2c1=O)C(F)(F)F (stereo partly drawn) [Example 30, 1-(3,5-Difluoropyridin-2-yl)-7-[4-methyl-2-oxopyrrolidin-1-yl]-4-oxo-N-[(2S)-1,1,1-trifluorobutan-2-yl]-1,4-dihydro-1,8-naphthyridine-3-carboxamide]
41 | 24 nM | – | 100.00% | CC(NC(=O)c1cn(-c2ncc(F)cc2F)c2nc(N3C[C@@H](O)[C@H](O)C3)ccc2c1=O)C(F)(F)C(F)(F)F (single isomer, unassigned) [Example 90]
63 | 31 nM | – | 98.25% | O=C(NC(c1ccccc1Cl)C(F)(F)F)c1cn(-c2ncc(F)cc2F)c2nc(N3C[C@@H](O)CC3=O)ccc2c1=O (single isomer, unassigned) [Example 5]
47 | 253 nM | 92% | – | CC[C@@H](NC(=O)c1cn(-c2ncccc2F)c2nc(N3C[C@@H](O)CC3=O)ccc2c1=O)C(F)(F)F [Example 140, 1-(3-Fluoropyridin-2-yl)-7-[(4S)-4-hydroxy-2-oxopyrrolidin-1-yl]-4-oxo-N-[(2R)-1,1,1-trifluorobutan-2-yl]-1,4-dihydro-1,8-naphthyridine-3-carboxamide]
63 | 43 nM | 96.2% | – | O=C(NC(C(F)(F)F)C(F)(F)F)c1cn(-c2ncc(F)cc2F)c2nc(N3C[C@@H](O)CC3=O)ccc2c1=O [Example 15, 1-(3,5-Difluoropyridin-2-yl)-N-(1,1,1,3,3,3-hexafluoropropan-2-yl)-7-[(4S)-4-hydroxy-2-oxopyrrolidin-1-yl]-4-oxo-1,4-dihydro-1,8-naphthyridine-3-carboxamide]
56 | 23 nM | 100% | – | CC(C)(C)[C@H](NC(=O)c1cn(-c2ncc(F)cc2F)c2nc(N3C[C@@H](O)CC3=O)ccc2c1=O)C(F)(F)F [Example 98, 1-(3,5-Difluoropyridin-2-yl)-7-[(4S)-4-hydroxy-2-oxopyrrolidin-1-yl]-4-oxo-N-[(2S)-1,1,1-trifluoro-3,3-dimethylbutan-2-yl]-1,4-dihydro-1,8-naphthyridine-3-carboxamide]
36 | 53 nM | 97% | – | O=C(Nc1c(Cl)cccc1Cl)c1cn(-c2ncc(F)cc2F)c2nc(N3C[C@@H](O)[C@H](O)C3)ccc2c1=O [Example 67, N-(2,6-Dichlorophenyl)-1-(3,5-difluoropyridin-2-yl)-7-[(3R,4R)-3,4-dihydroxypyrrolidin-1-yl]-4-oxo-1,4-dihydro-1,8-naphthyridine-3-carboxamide]
50 | 87 nM | 98.5% | – | O=C(N[C@@H](C1CC1)C(F)(F)F)c1cn(-c2ncc(F)cc2F)c2nc(N3C[C@@H](O)CC3=O)ccc2c1=O [Example 14, N-[(1S)-1-Cyclopropyl-2,2,2-trifluoroethyl]-1-(3,5-difluoropyridin-2-yl)-7-[(4S)-4-hydroxy-2-oxopyrrolidin-1-yl]-4-oxo-1,4-dihydro-1,8-naphthyridine-3-carboxamide]
68 | 34 nM | 100% | – | O=C(NC(C(F)(F)F)C(F)(F)F)c1cn(-c2ncc(F)cc2F)c2nc(N3C[C@@H](O)[C@H](O)C3)ccc2c1=O [Example 56, 1-(3,5-Difluoropyridin-2-yl)-7-[(3R,4R)-3,4-dihydroxypyrrolidin-1-yl]-N-(1,1,1,3,3,3-hexafluoropropan-2-yl)-4-oxo-1,4-dihydro-1,8-naphthyridine-3-carboxamide]
34 | 67 nM | 87% | – | CCC(COC(F)(F)F)NC(=O)c1cn(-c2ncc(F)cc2F)c2nc(N3C[C@@H](O)CC3=O)ccc2c1=O (single isomer, unassigned) [Example 18]
38 | 86 nM | – | 91.50% | CCC(COC(F)(F)F)NC(=O)c1cn(-c2ncc(F)cc2F)c2nc(N3C[C@@H](O)CC3=O)ccc2c1=O (single isomer, unassigned) [Example 19]
10 | 36 nM | 79% | – | CC1CC(=O)N(c2ccc3c(=O)c(C(=O)N[C@H](C4CC4)C(F)(F)F)cn(-c4ncc(F)cc4F)c3n2)C1 (mixture of isomers) [Example 27, N-[(1R)-1-Cyclopropyl-2,2,2-trifluoroethyl]-1-(3,5-difluoropyridin-2-yl)-7-[4-methyl-2-oxopyrrolidin-1-yl]-4-oxo-1,4-dihydro-1,8-naphthyridine-3-carboxamide]
